From patent US7884136B2, “Modified-release formulations of a bupropion salt” (Biovail Laboratories International S.R.L., priority 2005, dated 2011)

Tests used:
[1] = Comparative forced degradation of bupropion HCl and HBr API salts, closed glass bottle, 40° C./75% RH, HPLC; type: physicochemical; settings: for % Assay / % Impurities 3-CBZ / % Impurities 20U78/dilu / % Impurities 827U76 / % Impurities 852U77 / % Impurities Total unknown / Total (%) impurities: closed glass bottle
Protocol: Further stability tests were performed by directly comparing bupropion HBr and bupropion HCl salts in forced degradation studies. […] At specified times, the material in the bottles was analyzed for the presence of degradation products and % potency (% assay).
The samples were exposed to the above conditions in a closed bottle for few days, and then subjected to HPLC analysis. The amount of the main degradation products present after treatment were compared with those amounts that were present initially.
The samples were analysed after 14 and 24 days (study-1) and 10 days (study II), in a quantitative manner by direct treatment of the whole content of the bottle as per the HPLC standard test method (P05.901.10).

[2] = Dynamic Vapour Sorption (DVS) hygroscopicity of bupropion HBr; type: physicochemical; settings: for DVS: water uptake / hygroscopicity (words): range 0% RH-90% RH, hydrobromide
[3] = Moisture content of bupropion salts by KF; type: physicochemical
Protocol: (§1) The eight salts were first evaluated by HPLC, KF, pH and DSC for purity, water content, aqueous pH and possible polymorphs.
(§2) The salts were analysed by DSC (at 10° C./min from 30° C. up to 400° C.) and the pH (aq. 0.5%), and the moisture content by KF were also measured. The TGA was performed on the HCl, maleate, tosylate and HBr salts.

[4] = Solubility of Bupropion HBr vs Bupropion HCl in water, EtOH, IPA; type: physicochemical
[5] = Forced degradation stability study of bupropion salts spiked with placebo/excipients, closed vials, 40° C./75% RH, HPLC assay and impurities
Protocol: The stability of the salts was evaluated based on the formation of the main degradation products (see below) as determined by HPLC analysis and the % potency (or assay) of the API, after specific time periods in the stability chamber. The effect of the addition of solvents, such as water, ethanol and isopropyl alcohol, was also studied.
The samples of each salt and the spiked salts with the bupropion HCl XL were prepared under the conditions mentioned in Table 4. […] The stability of the bupropion salts were evaluated based on the formation of the main degradation product 3-chlorobenzoic acid (3-CBZ) and the intermediate degradation products diketone 827U76 and the ketohydroxyl derivatives (20U78 and 852U77) (Scheme 2).
As mentioned above, the stability samples were prepared in 2 mL vials and used directly for assay and impurity analysis by HPLC without further sample preparations to minimize errors.

[6] = TGA experiment at 100° C., loss of API salt over time; type: physicochemical; settings: TGA at 100° C.
Protocol: (§3) The average weight of the excipients and the weight of the active pharmaceutical ingredient (API) present in the samples are presented in Table 72. […] FIG. 53 is a graph showing the loss of each salt over time in a TGA experiment at 100° C.

[7] = pH of 0.5% aqueous solution of bupropion salts; type: physicochemical
Protocol: as §1, §2

[8] = Forced degradation of bupropion HBr and HCl in the presence of excipients at 55° C., 55° C./100% RH, 100° C. and 105° C.; type: physicochemical; settings: 24 and 48 hours at 55° C., 105 degrees C., hydrobromide
Protocol: Forced degradation studies were also performed on bupropion HBr and bupropion HCl API's in the presence of standard excipients used in pharmaceutical formulations.
as §3, with “Further forced degradation studies were carried out at 55° C., at 55° C. and 100% relative humidity, at 100° C., and at 105° C. on both the HCl and HBr Bupropion salts in the presence of excipients. The” for “The”

[9] = repeat study, 40 C/75% RH, 10 Days, Lot# STN07491, hydrobromide
[10] = repeat study, 40 C/75% RH, 10 Days, Lot# STN07492, hydrobromide
[11] = repeat study, 40 C/75% RH, Initial, Lot# STN07491, hydrobromide
[12] = repeat study, 40 C/75% RH, Initial, Lot# STN07492, hydrobromide
[13] = In IPA/EtOH, 32 days, closed vials
[14] = In water, 32 days, closed vials
[15] = salt plus excipients, 20 days, closed vial, 40° C./75% RH

Structure (SMILES): Br.CC(NC(C)(C)C)C(=O)c1cccc(Cl)c1 (centres unmarked) [Bupropion HBr, bupropion hydrobromide]
- Impurities and % potency compared to the HCl salt ([1]; closed bottles, 40 degrees C. and 75% relative humidity): amount of impurities was consistently lower and the % potency was consistently higher
- % Assay ([1]; 40° C./75% RH, 14-Days): 98.8%
- % Impurities 3-CBZ ([1]; 40° C./75% RH, 14-Days): 0.015%
- % Impurities 20U78/dilu ([1]; 40° C./75% RH, 14-Days): 0.048%
- % Impurities 827U76 ([1]; 40° C./75% RH, 14-Days): 0.012%
- % Impurities 852U77 ([1]; 40° C./75% RH, 14-Days): 0.058%
- % Impurities Total unknown ([1]; 40° C./75% RH, 14-Days): 0.105%
- Total (%) impurities ([1]; 40° C./75% RH, 14-Days): 0.23%
- % Assay ([1]; 40° C./75% RH, 24 Days): 99.5%
- % Impurities 3-CBZ ([1]; 40° C./75% RH, 24 Days): 0.022%
- % Impurities 20U78/dilu ([1]; 40° C./75% RH, 24 Days): 0.038%
- % Impurities 827U76 ([1]; 40° C./75% RH, 24 Days): 0.016%
- % Impurities 852U77 ([1]; 40° C./75% RH, 24 Days): 0.052%
- % Impurities Total unknown ([1]; 40° C./75% RH, 24 Days): 0.104%
- Total (%) impurities ([1]; 40° C./75% RH, 24 Days): 0.23%
- % Assay ([1]; 40° C./75% RH, Initial): 99.6%
- % Impurities 3-CBZ ([1]; 40° C./75% RH, Initial): 0.007%
- % Impurities 20U78/dilu ([1]; 40° C./75% RH, Initial): 0.044%
- % Impurities 852U77 ([1]; 40° C./75% RH, Initial): 0.009%
- % Impurities Total unknown ([1]; 40° C./75% RH, Initial): 0.098%
- Total (%) impurities ([1]; 40° C./75% RH, Initial): 0.16%
- % Impurities 827U76 ([1]; repeat study, 40 C/75% RH, 10 Days): 0.039%
- % Assay [1, 9]: 98.2%
- % Impurities 3-CBZ [1, 9]: 0.070%
- % Impurities 20U78/dilu [1, 9]: 0.051%
- % Impurities 852U77 [1, 9]: 0.125%
- % Impurities Total unknown [1, 9]: 0.129%
- Total (%) impurities [1, 9]: 0.42%
- % Assay [1, 10]: 99.2%
- % Impurities 3-CBZ [1, 10]: 0.031%
- % Impurities 20U78/dilu [1, 10]: 0.044%
- % Impurities 852U77 [1, 10]: 0.055%
- % Impurities Total unknown [1, 10]: 0.15%
- Total (%) impurities [1, 10]: 0.24%
- % Impurities 20U78/dilu ([1]; repeat study, 40 C/75% RH, Initial): 0.041%
- % Assay [1, 11]: 99.5%
- % Impurities 3-CBZ [1, 11]: 0.011%
- % Impurities Total unknown [1, 11]: 0.129%
- Total (%) impurities [1, 11]: 0.17%
- % Assay [1, 12]: 99.6%
- % Impurities 3-CBZ [1, 12]: 0.007%
- % Impurities Total unknown [1, 12]: 0.194%
- Total (%) impurities [1, 12]: 0.23%
- DVS: maximum water uptake ([2]; at 90% RH): 0.14 % weight
- DVS: water uptake / hygroscopicity (words) ([2]; listed as HBr): non-hygroscopic
- DVS: water uptake / hygroscopicity (words) ([2]; listed as bupropion HBr): no significant water uptake
- Moisture Content (KF) ([3]; Table 3, supplier API): 0.00%
- KF (moisture content), Original (Initial APIs) ([3]; original API salts): 0.00%
- Solubility, EtOH ([4]; EtOH): 92 mg/mL
- Solubility, IPA ([4]; IPA): 12 mg/mL
- Solubility, Water ([4]; water): 143 mg/mL
- Order of stability (assay) with IPA & EtOH ([5]; DS and excipients spiked with IPA & EtOH, 32 days, closed vials, 40° C.): HCl>HBr>tosylate>maleate>fumarate
- Order of stability (assay) with water ([5]; DS and excipients spiked with water, 32 days, closed vials, 40° C.): tosylate>maleate>HCl>HBr>fumarate
- Stability in the forced degradation stability studies, overall ([5]; DS and spiked DS, 40° C./75% RH): superior stability in a closed container
- Content of impurity 3-CBZ, order of salts [5, 13]: maleate > HBr > HCl > Fumarate
- Content of impurity 852U77, order of salts [5, 13]: fumarate > HBr ≈ HCl ≈ maleate ≈ tosylate
- Total imp., order of salts [5, 13]: fumarate > maleate > HBr > HCl > tosylate
- Content of impurity 3-CBZ, order of salts [5, 14]: HCl > HBr ≈ maleate ≈ fumarate
- Content of impurity 852U77, order of salts [5, 14]: fumarate > HBr > maleate > HCl
- Total imp., order of salts [5, 14]: fumarate > HBr > HCl > tosylate > maleate
- Degradation products and retained activity compared with all salts tested ([5]; open and closed vials, 40 degrees C./75% RH, 'after at least 3 months or after at least 6 months'): least amount of degradation products
- Impurities (3-CBZ, 852U77 & total) compared to the other salts [5, 15]: lowest
- Order of stability (assay, % potency) [5, 15]: HBr>HCl=tosylate>fumarate>maleate
- Disproportionation of the salt at elevated temperature [6]: did not occur
- pH (aq. 0.5%), Original (Initial APIs) ([7]; 0.5% aqueous solution, original API salts): 5.92
- pH (aq. 0.5%) ([7]; Table 3, supplier API): 5.92
- Degradation in the presence of excipients (formation of impurities, words) ([8]; listed as HBr): lowest amount of degradation
- Degradation in the presence of excipients (formation of impurities, words) ([8]; listed as bupropion HBr): significant improvements in stability compared to bupropion HCl
